Measured values from patent US9682931B2, “Aryloyl(oxy or amino)pentafluorosulfanylbenzene compound, pharmaceutically acceptable salt thereof, and prodrugs thereof” (UBE INDUSTRIES, LTD., priority 2013, dated 2017).

What was measured:
Topoisomerase I = target: T1, Topoisomerase I (Homo sapiens, UniProt P11387); test: Topoisomerase I assay; assay type: biochemical; set-up: key to Inhibitory activity Topoisomerase I: ∘: Inhibitory activity is present; Δ: Weak inhibitory activity is present; x: No inhibitory activity is present
T1 sequence (P11387 1-765): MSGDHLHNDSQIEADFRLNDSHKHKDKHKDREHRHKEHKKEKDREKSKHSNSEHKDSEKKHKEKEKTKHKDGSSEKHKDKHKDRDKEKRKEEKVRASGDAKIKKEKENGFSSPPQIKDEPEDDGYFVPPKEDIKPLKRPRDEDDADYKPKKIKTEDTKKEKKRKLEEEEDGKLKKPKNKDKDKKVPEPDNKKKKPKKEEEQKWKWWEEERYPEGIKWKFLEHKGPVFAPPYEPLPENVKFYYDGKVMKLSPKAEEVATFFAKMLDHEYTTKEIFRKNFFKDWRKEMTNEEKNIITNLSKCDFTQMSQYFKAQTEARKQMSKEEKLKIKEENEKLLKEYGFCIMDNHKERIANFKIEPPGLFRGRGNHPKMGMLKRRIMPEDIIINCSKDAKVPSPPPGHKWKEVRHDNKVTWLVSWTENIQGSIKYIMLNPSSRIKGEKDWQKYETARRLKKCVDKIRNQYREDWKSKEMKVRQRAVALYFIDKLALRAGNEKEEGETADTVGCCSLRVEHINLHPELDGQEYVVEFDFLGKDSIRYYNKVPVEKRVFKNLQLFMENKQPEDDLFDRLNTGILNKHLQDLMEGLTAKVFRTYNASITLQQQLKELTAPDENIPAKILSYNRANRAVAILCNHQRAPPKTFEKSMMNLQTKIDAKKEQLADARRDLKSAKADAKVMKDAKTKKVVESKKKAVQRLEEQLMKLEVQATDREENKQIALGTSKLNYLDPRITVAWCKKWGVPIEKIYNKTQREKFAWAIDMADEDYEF
Method: The inhibitory action of a test substance (Compound 3) on Topoisomerase I and Topoisomerase II was examined.
Topoisomerase I (4 units) was subjected to the following assay performed in the assay conditions, which were determined by a preliminary examination, for a reaction time of 2 hours.
(1) An assay solution was prepared in accordance with the following table.

[1] = tested on: lumen formed in angiogenesis kit with VEGF-A; test: Angiogenesis inhibitory action (angiogenesis kit, VEGF-A, CD31 staining, area and length of lumen); assay type: cell-based; details: 5 μg/mL, VEGF-A 10 ng/mL, 11 days
Text: Angiogenesis Inhibitory Action
The angiogenesis inhibitory action of a test substance (Compound 3) was examined by use of measuring reagents and analysis software described below.
1. Measuring Reagents and Analysis Software
Angiogenesis kit (Cat. No. KZ-1000), manufactured by KURABO INDUSTRIES LTD.
Angiogenic agent VEGF-A (Cat. No. KZ-1350), manufactured by KURABO INDUSTRIES LTD.
Lumen staining kit (for staining CD31, Cat. No. ZHA-1225), manufactured by KURABO INDUSTRIES LTD.
Image analysis software: Angiogenesis Image Analyzer V2.0, manufactured by KURABO INDUSTRIES LTD.
Herein, as a culture medium, angiogenesis specific medium-2 (hereinafter referred to as the medium) provided in the above angiogenesis kit.
Positive control: Medium containing VEGF-A (10 ng/mL)
Negative control: Medium containing VEGF-A (10 ng/mL) and Suramin (50 μmol/L)
3. Preparation of Samples
A test substance was weighed at the starting day of a test. The medium was added so as to be 500 μg/mL. Sonication was performed while heating at 37° C. for 60 minutes to be dissolved. Then, filtration was performed by a 0.22 μm filter. The 500 μg/mL-solution was serially diluted with the medium in a common ratio of 10. […]
The pictures were subjected to image analysis by use of image analysis software, Angiogenesis Image Analyzer V 2.0, and the area and length of the lumen formed were measured.

O=C(Nc1ccc(S(F)(F)(F)(F)F)cc1)c1cc(O)c(O)c(O)c1 [Compound 3, 4-(3,4,5-trihydroxybenzoylamino)pentafluorosulfanylbenzene]
Topoisomerase I inhibitory activity (Topoisomerase I; 500 μg/mL): inhibitory activity was confirmed
Inhibitory activity Topoisomerase I (Topoisomerase I; final concentration 0.5 μg/mL): x
Inhibitory activity Topoisomerase I (Topoisomerase I; final concentration 5 μg/mL): x
Inhibitory activity Topoisomerase I (Topoisomerase I; final concentration 50 μg/mL): x
Inhibitory activity Topoisomerase I (Topoisomerase I; final concentration 500 μg/mL): ∘
angiogenesis inhibitory effect (area and length of lumen) [1]: angiogenesis inhibitory effect was confirmed
